Measurements as given in patent publication US20230114728A1 (Venatorx Pharmaceuticals, Inc., priority 2019, published 2023).
Values after ≈ are worked out from the molar mass of the structure shown.

Key:
[1] = biological target: T1, E. coli K12 PBP3 (Escherichia coli, UniProt P0AD68); experiment: biochemical; assay type: binding
T1 construct: made in house
Summary of the method: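 Fluorescence polarization (ex 490/em 520 nm) competition of inhibitors against Bocillin-FL at 0.1 μM, read up to 60 min. Final PBP levels: E. coli PBP3 1.5 μM; A. baumannii PBP2 2.5 μM, PBP3 0.2 μM in Tris pH 8.0/NaCl/glycerol/Tween 20; N. gonorrhoeae PBP2 […] in Hepes pH 8.0/NaCl/glycerol. EC50 = concentration halving PBP-bound Bocillin-FL.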

[2] = biological target: T2, P. aeruginosa PBP3 (Pseudomonas aeruginosa, UniProt G3XD46); experiment: Bocillin-FL fluorescence polarization competition binding assay, P. aeruginosa PBP3; settings: fluorescence polarization competition binding assay using Bocillin-FL
T2 construct: made in house
T2 sequence (G3XD46 whole entry): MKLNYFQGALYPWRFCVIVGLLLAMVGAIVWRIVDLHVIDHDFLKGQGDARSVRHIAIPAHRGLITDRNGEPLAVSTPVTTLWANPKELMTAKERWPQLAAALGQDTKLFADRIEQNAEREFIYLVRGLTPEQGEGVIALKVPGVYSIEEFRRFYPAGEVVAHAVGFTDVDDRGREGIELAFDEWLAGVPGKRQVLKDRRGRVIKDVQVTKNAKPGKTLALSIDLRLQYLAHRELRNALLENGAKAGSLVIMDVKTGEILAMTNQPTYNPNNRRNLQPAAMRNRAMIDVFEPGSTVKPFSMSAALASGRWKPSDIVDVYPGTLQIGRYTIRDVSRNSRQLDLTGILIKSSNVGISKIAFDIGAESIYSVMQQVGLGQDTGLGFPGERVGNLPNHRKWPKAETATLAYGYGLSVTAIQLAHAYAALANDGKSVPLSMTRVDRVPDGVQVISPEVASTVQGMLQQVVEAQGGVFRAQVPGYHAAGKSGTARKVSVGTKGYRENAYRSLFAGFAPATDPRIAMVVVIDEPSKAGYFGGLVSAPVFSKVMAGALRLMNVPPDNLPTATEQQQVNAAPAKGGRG
Summary of the method: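 Binding of boronic acid inhibitors to purified Pseudomonas aeruginosa (PA01) PBP3 was measured by fluorescence polarization competition with Bocillin-FL, a fluorescent penicillin V. Reactions of 80 μl contained 0.75 μM PBP3 and 0.1 μM Bocillin-FL in 50 mM Hepes (pH 8.0), 300 mM NaCl and 5% (v/v) glycerol, in black 384-well plates. FP (Excitation 490 nm, Emission 520 nm) was read for up to 60 minutes. EC50 is the concentration that halves PBP-bound Bocillin-FL.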

[3] = tested on: P. aeruginosa ATCC 27853; experiment: Broth microdilution MIC in CAMHB; assay type: cell-based; settings: Pseudomonas aeruginosa, ATCC27853; MHB; read-out: Minimum Inhibitory Concentration, P. aeruginosa ATCC 27853
Summary of the method: (§1)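 Colonies from cation-adjusted Mueller Hinton agar are grown in broth (3-5 h, 37° C), adjusted by OD600, and added at 2-8×10^5 CFU/mL to 2-fold compound dilutions. After 16-20 h at 37° C, the lowest concentration without growth is taken as MIC.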

[4] = tested on: P. aeruginosa (ΔmexAB-oprM); experiment: Broth microdilution MIC in CAMHB; assay type: cell-based; settings: Pseudomonas aeruginosa, read-out: Minimum Inhibitory Concentration, P. aeruginosa ΔmexAB-OprM
Summary of the method: as §1

[5] = tested on: K. pneumoniae UMM producing SHV-5 and KPC-2; experiment: Broth microdilution MIC in CAMHB; assay type: cell-based; settings: Klebsiella pneumoniae, read-out: Minimum Inhibitory Concentration, K. pneumoniae UMM
Summary of the method: as §1

[6] = tested on: K. pneumoniae 848844 producing SHV-11 and KPC-2; experiment: Broth microdilution MIC in CAMHB; assay type: cell-based; settings: Klebsiella pneumoniae, read-out: Minimum Inhibitory Concentration, K. pneumoniae 848844
Summary of the method: as §1

[7] = tested on: E. coli 901C; experiment: Broth microdilution MIC in CAMHB; assay type: cell-based; settings: Escherichia coli; E. coli 901C (hyper-permeable); MHB; read-out: Minimum Inhibitory Concentration, E. coli 901C
Summary of the method: as §1

[8] = tested on: E. coli AG100; experiment: Broth microdilution MIC in CAMHB; assay type: cell-based; settings: Escherichia coli; E. coli AG100 (wild-type parent); MHB; read-out: Minimum Inhibitory Concentration, E. coli AG100
Summary of the method: as §1

[9] = tested on: A. baumannii ATCC 19606; experiment: Broth microdilution MIC in CAMHB; assay type: cell-based; settings: Acinetobacter baumannii, ATCC19606; MHB; read-out: Minimum Inhibitory Concentration, A. baumannii ATCC 19606
Summary of the method: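 Lowest compound concentration with no visible growth after 16-20 h at 37 °C defines MIC. Plates of 2-fold serial dilutions in cation-adjusted Mueller Hinton broth received 2-8×10^5 CFU/mL of exponentially grown cells, per CLSI methods; panel spans reference, hyper-permeable and efflux-pump-deleted strains.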

T1 sequence (P0AD68 1-577): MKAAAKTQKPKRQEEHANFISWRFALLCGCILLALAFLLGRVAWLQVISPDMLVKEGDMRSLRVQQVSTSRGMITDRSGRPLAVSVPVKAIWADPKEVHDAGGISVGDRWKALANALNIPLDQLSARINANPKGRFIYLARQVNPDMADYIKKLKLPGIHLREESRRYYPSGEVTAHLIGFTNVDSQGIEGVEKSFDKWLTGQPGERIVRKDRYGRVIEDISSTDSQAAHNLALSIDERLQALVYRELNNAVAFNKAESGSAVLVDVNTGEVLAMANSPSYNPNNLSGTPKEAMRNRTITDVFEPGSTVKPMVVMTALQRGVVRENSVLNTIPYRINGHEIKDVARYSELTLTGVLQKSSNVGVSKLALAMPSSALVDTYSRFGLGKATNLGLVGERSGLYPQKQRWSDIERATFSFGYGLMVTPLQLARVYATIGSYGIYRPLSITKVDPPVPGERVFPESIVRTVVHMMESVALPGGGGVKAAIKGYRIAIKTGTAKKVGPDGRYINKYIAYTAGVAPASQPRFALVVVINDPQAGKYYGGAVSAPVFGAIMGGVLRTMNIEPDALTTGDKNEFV

Row | SMILES | EC50 [1] [µM] | P. aeruginosa PBP3 Potency [2] | MIC [3] [µg/mL] | MIC [4] [µg/mL] | MIC [5] [µg/mL] | MIC [6] [µg/mL] | MIC [7] [µg/mL] | MIC [8] [µg/mL] | MIC [9] [µg/mL]
1 | CCN1CCN(C(=O)N[C@@H](C(=O)N[C@H]2Cc3cccc(C(=O)O)c3OB2O)c2ccc(C(=O)O)cc2O)C(=O)C1=O (single isomer, unassigned) [Example 144] | < 30 | D (D represents a potency <10 μM) | > 128 | 8 to 16 (≈ 14.1 to 28.2 µM) | 32 to 64 (≈ 56.3 to 113 µM) | > 128 | < 0.25 | 32 to 64 (≈ 56.3 to 113 µM) | 32 to 64 (≈ 56.3 to 113 µM)
2 | CCN1CCN(C(=O)N[C@@H](C(=O)N[C@H]2Cc3cccc(C(=O)O)c3OB2O)c2cc(F)c(C(=O)O)cc2Cl)C(=O)C1=O (single isomer, unassigned) [Example 148] | < 30 | D (D represents a potency <10 μM) | > 128 | 8 to 16 (≈ 13.2 to 26.5 µM) | 32 to 64 (≈ 52.9 to 106 µM) | > 128 | < 0.25 | 32 to 64 (≈ 52.9 to 106 µM) | > 128
3 | NC1(CN2CCN(C(=O)N[C@H](C(=O)N[C@H]3Cc4cccc(C(=O)O)c4OB3O)c3c(F)cc(O)cc3F)C(=O)C2=O)CC1 (single isomer, unassigned) [Example 122] | < 30 | D (D represents a potency <10 μM) | > 128 | 32 to 64 (≈ 53.2 to 106 µM) | 32 to 64 (≈ 53.2 to 106 µM) | > 128 | 2 to 4 (≈ 3.33 to 6.65 µM) | 32 to 64 (≈ 53.2 to 106 µM) | > 128
4 | NCCCN1CCN(C(=O)N[C@H](C(=O)N[C@H]2Cc3cccc(C(=O)O)c3OB2O)c2cccc(NS(N)(=O)=O)c2)C(=O)C1=O [Example 118, (R)-3-((S)-2-(4-(3-aminopropyl)-2,3-dioxopiperazine-1-carboxamido)-2-(3-(sulfamoylamino)phenyl)acetamido)-2-hydroxy-3,4-dihydro-2H-benzo[e][1,2]oxaborinine-8-carboxylic acid] | 30 to 500 | D (D represents a potency <10 μM) | > 128 | 8 to 16 (≈ 12.7 to 25.3 µM) | 32 to 64 (≈ 50.7 to 101 µM) | > 128 | 2 to 4 (≈ 3.17 to 6.33 µM) | 32 to 64 (≈ 50.7 to 101 µM) | > 128
5 | CCN1CCN(C(=O)NC(C(=O)N[C@H]2Cc3cccc(C(=O)O)c3OB2O)c2c(F)c(O)cc(O)c2F)C(=O)C1=O (stereo partly drawn) [Example 106, (3R)-3-(2-(2,6-difluoro-3,5-dihydroxyphenyl)-2-(4-ethyl-2,3-dioxopiperazine-1-carboxamido)acetamido)-2-hydroxy-3,4-dihydro-2H-benzo[e][1,2]oxaborinine-8-carboxylic acid] | 30 to 500 | D (D represents a potency <10 μM) | > 128 | 8 to 16 (≈ 13.9 to 27.8 µM) | > 128 | > 128 | 2 to 4 (≈ 3.47 to 6.94 µM) | > 128 | > 128
6 | CCN1CCN(C(=O)NC(C(=O)N[C@H]2Cc3cccc(C(=O)O)c3OB2O)c2cncc(O)c2)C(=O)C1=O (stereo partly drawn) [Example 112, (3R)-3-(2-(4-ethyl-2,3-dioxopiperazine-1-carboxamido)-2-(5-hydroxypyridin-3-yl)acetamido)-2-hydroxy-3,4-dihydro-2H-benzo[e][1,2]oxaborinine-8-carboxylic acid] | 30 to 500 | D (D represents a potency <10 μM) | > 128 | 8 to 16 (≈ 15.2 to 30.5 µM) | 32 to 64 (≈ 60.9 to 122 µM) | > 128 | 0.5 to 1 (≈ 0.952 to 1.9 µM) | 32 to 64 (≈ 60.9 to 122 µM) | > 128
7 | NCCN1CCN(C(=O)N[C@H](C(=O)N[C@H]2Cc3cccc(C(=O)O)c3OB2O)c2cccc(NS(N)(=O)=O)c2)C(=O)C1=O (single isomer, unassigned) [Example 115] | 30 to 500 | C (C represents a potency between 10 and 30 μM) | > 128 | 8 to 16 (≈ 13 to 25.9 µM) | > 128 | > 128 | 2 to 4 (≈ 3.24 to 6.48 µM) | > 128 | > 128
8 | CCN1CCN(C(=O)NC(C(=O)N[C@H]2Cc3cccc(C(=O)O)c3OB2O)c2cc(F)c(C(=O)O)cc2F)C(=O)C1=O (stereo partly drawn) [Example 137, (3R)-3-(2-(4-carboxy-2,5-difluorophenyl)-2-(4-ethyl-2,3-dioxopiperazine-1-carboxamido)acetamido)-2-hydroxy-3,4-dihydro-2H-benzo[e][1,2]oxaborinine-8-carboxylic acid] | < 30 | D (D represents a potency <10 μM) | > 128 | 8 to 16 (≈ 13.6 to 27.2 µM) | 32 to 64 (≈ 54.4 to 109 µM) | > 128 | < 0.25 | 32 to 64 (≈ 54.4 to 109 µM) | > 128
9 | CCN1CCN(C(=O)N[C@H](C(=O)N[C@H]2Cc3cccc(C(=O)O)c3OB2O)c2ccc(C(=O)O)c(Cl)c2)C(=O)C1=O (single isomer, unassigned) [Example 155] | < 30 | D (D represents a potency <10 μM) | > 128 | 8 to 16 (≈ 13.6 to 27.3 µM) | > 128 | > 128 | < 0.25 | 32 to 64 (≈ 54.5 to 109 µM) | > 128
10 | CS(=O)(=O)N1CCN(C(=O)N[C@@H](C(=O)N[C@H]2Cc3cccc(C(=O)O)c3OB2O)c2c(F)cc(O)cc2F)C1=O (single isomer, unassigned) [Example 135] | < 30 | D (D represents a potency <10 μM) | > 128 | 32 to 64 (≈ 55 to 110 µM) | 32 to 64 (≈ 55 to 110 µM) | 32 to 64 (≈ 55 to 110 µM) | < 0.25 | 32 to 64 (≈ 55 to 110 µM) | > 128
11 | CCN1CCN(C(=O)NC(C(=O)N[C@H]2Cc3cccc(C(=O)O)c3OB2O)c2c(F)c(F)c(O)c(F)c2F)C(=O)C1=O (stereo partly drawn) [Example 175, (3R)-3-(2-(4-ethyl-2,3-dioxopiperazine-1-carboxamido)-2-(2,3,5,6-tetrafluoro-4-hydroxyphenyl)acetamido)-2-hydroxy-3,4-dihydro-2H-benzo[e][1,2]oxaborinine-8-carboxylic acid] | < 30 | D (D represents a potency <10 μM) | > 128 | 8 to 16 (≈ 13.4 to 26.8 µM) | 32 to 64 (≈ 53.7 to 107 µM) | > 128 | < 0.25 | 8 to 16 (≈ 13.4 to 26.8 µM) | 32 to 64 (≈ 53.7 to 107 µM)
12 | CCN1CCN(C(=O)N[C@@H](C(=O)N[C@H]2Cc3cccc(C(=O)O)c3OB2O)c2ccc(C(=O)O)cc2)C(=O)C1=O (single isomer, unassigned) [Example 124] | < 30 | D (D represents a potency <10 μM) | 32 to 64 (≈ 57.9 to 116 µM) | 2 to 4 (≈ 3.62 to 7.24 µM) | 32 to 64 (≈ 57.9 to 116 µM) | > 128 | < 0.25 | 8 to 16 (≈ 14.5 to 29 µM) | > 128
13 | CCN1CCN(C(=O)N[C@@H](C(=O)N[C@H]2Cc3cccc(C(=O)O)c3OB2O)c2ccc(C(=O)O)c(F)c2)C(=O)C1=O (single isomer, unassigned) [Example 146] | < 30 | D (D represents a potency <10 μM) | 32 to 64 (≈ 56.1 to 112 µM) | 8 to 16 (≈ 14 to 28.1 µM) | 32 to 64 (≈ 56.1 to 112 µM) | > 128 | < 0.25 | 32 to 64 (≈ 56.1 to 112 µM) | 32 to 64 (≈ 56.1 to 112 µM)
14 | CCN1CCN(C(=O)N[C@@H](C(=O)N[C@H]2Cc3cccc(C(=O)O)c3OB2O)c2ccc(C(=O)O)c(Cl)c2)C(=O)C1=O (single isomer, unassigned) [Example 154] | < 30 | D (D represents a potency <10 μM) | > 128 | 8 to 16 (≈ 13.6 to 27.3 µM) | 32 to 64 (≈ 54.5 to 109 µM) | > 128 | < 0.25 | 32 to 64 (≈ 54.5 to 109 µM) | 32 to 64 (≈ 54.5 to 109 µM)
15 | CCN1CCN(C(=O)NC(C(=O)N[C@H]2Cc3cccc(C(=O)O)c3OB2O)c2cc(Cl)c(C(=O)O)cc2F)C(=O)C1=O (stereo partly drawn) [Example 138, (3R)-3-(2-(4-carboxy-5-chloro-2-fluorophenyl)-2-(4-ethyl-2,3-dioxopiperazine-1-carboxamido)acetamido)-2-hydroxy-3,4-dihydro-2H-benzo[e][1,2]oxaborinine-8-carboxylic acid] | < 30 | D (D represents a potency <10 μM) | > 128 | 32 to 64 (≈ 52.9 to 106 µM) | 32 to 64 (≈ 52.9 to 106 µM) | > 128 | < 0.25 | 32 to 64 (≈ 52.9 to 106 µM) | > 128
